Data set [1] is described as follows: Clearance in mouse at 3 mg/kg, iv. Format: ADME, organism-based. Details: dose 3 mg/kg, route intravenous. To be noted: in vivo.
Data set [2] in a line: Half life in cynomolgus monkey at 1 mg/kg, iv. It is filed as ADME, organism-based, Macaca fascicularis. More on the design: dose 1 mg/kg, route intravenous. The note with it: in vivo.
Data set [3] can be described thus: Volume of distribution at steady state in cynomolgus monkey at 1 mg/kg, iv. Format: ADME, organism-based, Macaca fascicularis. More on the design: dose 1 mg/kg, route intravenous. To be noted: in vivo, read-out: Vdss.
A short description of data set [4]: Oral bioavailability in cynomolgus monkey at 10 mg/kg, po. It is filed as ADME, organism-based, Macaca fascicularis. To be noted: in vivo.
A short description of data set [5]: Volume of distribution at steady state in dog at 1 mg/kg, iv. Details: dose 1 mg/kg, route intravenous. Format: ADME, organism-based, Canis lupus familiaris. The note with it: in vivo, read-out: Vdss.
Data set [6] is described as follows: Clearance in dog at 1 mg/kg, iv. It is filed as ADME, organism-based, Canis lupus familiaris. Details: dose 1 mg/kg, route intravenous. The note with it: in vivo.
A short description of data set [7]: Mean retention time in cynomolgus monkey at 1 mg/kg, iv. To be noted: in vivo. More on the design: dose 1 mg/kg, route intravenous. Format: ADME, organism-based, Macaca fascicularis.
Data set [8] can be described thus: Mean retention time in mouse at 3 mg/kg, iv. To be noted: in vivo. Details: dose 3 mg/kg, route intravenous. Format: ADME, organism-based.
The nature of data set [9]: Mean retention time in dog at 1 mg/kg, iv. Format: ADME, organism-based, Canis lupus familiaris. More on the design: dose 1 mg/kg, route intravenous. The note with it: in vivo.
Data set [10] can be described thus: Clearance in cynomolgus monkey at 1 mg/kg, iv. To be noted: in vivo. Format: ADME, organism-based, Macaca fascicularis. Details: dose 1 mg/kg, route intravenous.
Data set [11] in a line: Volume of distribution at steady state in mouse at 3 mg/kg, iv. It is filed as ADME, organism-based. Details: dose 3 mg/kg, route intravenous. The note with it: in vivo, read-out: Vdss.
A short description of data set [12]: Half life in mouse at 3 mg/kg, iv. More on the design: dose 3 mg/kg, route intravenous. Format: ADME, organism-based. The note with it: in vivo.
A short description of data set [13]: Oral bioavailability in mouse at 10 mg/kg, po. It is filed as ADME, organism-based. The note with it: in vivo.
A short description of data set [14]: Oral bioavailability in dog at 10 mg/kg. Format: ADME, organism-based, Canis lupus familiaris. To be noted: in vivo.
The nature of data set [15]: Half life in dog at 1 mg/kg, iv. It is filed as ADME, organism-based, Canis lupus familiaris. Details: dose 1 mg/kg, route intravenous. The note with it: in vivo.
For a further data set, the target named is Cytochrome P450 2D6 (Homo sapiens, UniProt P10635).
The nature of data set [16]: Intrinsic clearance in rat liver microsomes. Format: ADME, Microsome. (In general: Liver microsomes are vesicles of endoplasmic reticulum, rich in cytochrome P450 enzymes.)
Data set [17] is described as follows: Volume of distribution at steady state in Sprague-Dawley rat at 1 mg/kg, iv. Format: ADME, organism-based. Details: dose 1 mg/kg, route intravenous. To be noted: in vivo, read-out: Vdss.
Data set [18] in a line: Mean retention time in Sprague-Dawley rat at 1 mg/kg, iv. Format: ADME, organism-based. More on the design: dose 1 mg/kg, route intravenous. The note with it: in vivo.
Another data set addresses Cytochrome P450 3A4 (Homo sapiens, UniProt P08684).
Data set [19] is described as follows: Clearance in Sprague-Dawley rat at 1 mg/kg, iv. The note with it: in vivo. More on the design: dose 1 mg/kg, route intravenous. Format: ADME, organism-based.
Data set [20] concerns the target Vascular endothelial growth factor receptor 2 (Homo sapiens, UniProt P35968).
Description: Inhibition of KDR by HTRF assay
The nature of data set [21]: Half life in Sprague-Dawley rat at 1 mg/kg, iv. To be noted: in vivo. Format: ADME, organism-based. Details: dose 1 mg/kg, route intravenous.
A short description of data set [22]: Cmax in Sprague-Dawley rat at 2 mg/kg, po. It is filed as ADME, organism-based. More on the design: dose 2 mg/kg, route oral. To be noted: in vivo.
Data set [23] in a line: AUC (0 to 24 hrs) in Sprague-Dawley rat at 2 mg/kg, po. Details: time < 24 hr, dose 2 mg/kg, route oral. The note with it: plasma. It is filed as ADME, organism-based.
Data set [24] relates to HUVEC. The data set is described as follows: cells. The note with it: Homo sapiens.
Description: Inhibition of VEGF-induced proliferation of HUVEC cells
Data set [25] relates to HUVEC. The data set is described as follows: cells. To be noted: Homo sapiens. This is another data set of the same source.
Description: Inhibition of bFGF-induced proliferation of HUVEC cells
Data set [26] in a line: Intrinsic clearance in human liver microsomes. It is filed as ADME, Microsome.
Data set [27] can be described thus: Oral bioavailability in Sprague-Dawley rat at 2 mg/kg. The note with it: in vivo. Format: ADME, organism-based.

Structures are written as SMILES. A value given as a limit tells only on which side of the number the result lay.

Chain of Vascular endothelial growth factor receptor 2 (P35968 whole entry): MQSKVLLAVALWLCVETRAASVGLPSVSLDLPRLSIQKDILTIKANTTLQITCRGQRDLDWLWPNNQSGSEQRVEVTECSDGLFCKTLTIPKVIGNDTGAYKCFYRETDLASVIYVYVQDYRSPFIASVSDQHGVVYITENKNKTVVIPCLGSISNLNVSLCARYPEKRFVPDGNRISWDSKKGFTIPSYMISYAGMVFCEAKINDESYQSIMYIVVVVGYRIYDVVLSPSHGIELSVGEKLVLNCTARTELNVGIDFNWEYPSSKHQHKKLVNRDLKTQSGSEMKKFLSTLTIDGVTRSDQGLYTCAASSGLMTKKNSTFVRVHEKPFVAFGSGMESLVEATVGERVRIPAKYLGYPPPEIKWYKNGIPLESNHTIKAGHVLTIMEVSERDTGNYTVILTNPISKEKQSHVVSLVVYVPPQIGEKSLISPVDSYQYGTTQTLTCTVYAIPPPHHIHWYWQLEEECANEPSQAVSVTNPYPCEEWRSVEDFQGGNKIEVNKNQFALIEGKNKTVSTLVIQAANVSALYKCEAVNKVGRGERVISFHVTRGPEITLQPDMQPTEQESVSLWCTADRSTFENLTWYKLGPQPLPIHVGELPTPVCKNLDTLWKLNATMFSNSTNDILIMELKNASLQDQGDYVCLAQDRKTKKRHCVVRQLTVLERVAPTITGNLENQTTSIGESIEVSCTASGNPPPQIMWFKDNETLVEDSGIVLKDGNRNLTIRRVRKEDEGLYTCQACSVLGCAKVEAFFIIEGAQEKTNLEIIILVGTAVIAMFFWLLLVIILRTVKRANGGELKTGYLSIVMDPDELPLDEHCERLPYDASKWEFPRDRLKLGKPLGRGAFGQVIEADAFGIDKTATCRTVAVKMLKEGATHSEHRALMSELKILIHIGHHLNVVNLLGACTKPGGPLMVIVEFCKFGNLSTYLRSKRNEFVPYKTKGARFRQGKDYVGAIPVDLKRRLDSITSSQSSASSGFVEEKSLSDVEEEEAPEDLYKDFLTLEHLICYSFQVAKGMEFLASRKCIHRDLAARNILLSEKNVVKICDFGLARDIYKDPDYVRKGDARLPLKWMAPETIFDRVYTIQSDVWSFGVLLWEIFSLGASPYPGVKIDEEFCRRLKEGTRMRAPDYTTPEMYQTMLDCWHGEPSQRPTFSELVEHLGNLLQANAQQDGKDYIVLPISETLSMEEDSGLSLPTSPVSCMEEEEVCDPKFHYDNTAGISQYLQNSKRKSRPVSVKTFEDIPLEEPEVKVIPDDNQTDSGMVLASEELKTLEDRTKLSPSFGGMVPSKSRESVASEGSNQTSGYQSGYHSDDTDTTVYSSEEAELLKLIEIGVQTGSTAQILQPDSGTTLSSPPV
Chain of Cytochrome P450 2D6 (P10635 whole entry): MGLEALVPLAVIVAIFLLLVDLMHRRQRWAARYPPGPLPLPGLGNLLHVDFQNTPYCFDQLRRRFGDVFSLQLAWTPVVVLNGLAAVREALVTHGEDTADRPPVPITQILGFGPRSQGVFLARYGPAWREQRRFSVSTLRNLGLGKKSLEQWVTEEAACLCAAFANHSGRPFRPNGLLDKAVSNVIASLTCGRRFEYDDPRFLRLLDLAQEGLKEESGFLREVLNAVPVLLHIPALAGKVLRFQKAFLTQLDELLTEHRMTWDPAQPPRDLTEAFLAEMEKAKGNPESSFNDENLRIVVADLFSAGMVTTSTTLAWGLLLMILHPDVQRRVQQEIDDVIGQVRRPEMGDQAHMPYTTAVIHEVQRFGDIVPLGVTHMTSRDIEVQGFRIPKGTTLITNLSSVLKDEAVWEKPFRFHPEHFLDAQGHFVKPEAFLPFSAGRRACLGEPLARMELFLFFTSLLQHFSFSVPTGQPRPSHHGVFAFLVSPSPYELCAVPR
Chain of Cytochrome P450 3A4 (P08684 whole entry): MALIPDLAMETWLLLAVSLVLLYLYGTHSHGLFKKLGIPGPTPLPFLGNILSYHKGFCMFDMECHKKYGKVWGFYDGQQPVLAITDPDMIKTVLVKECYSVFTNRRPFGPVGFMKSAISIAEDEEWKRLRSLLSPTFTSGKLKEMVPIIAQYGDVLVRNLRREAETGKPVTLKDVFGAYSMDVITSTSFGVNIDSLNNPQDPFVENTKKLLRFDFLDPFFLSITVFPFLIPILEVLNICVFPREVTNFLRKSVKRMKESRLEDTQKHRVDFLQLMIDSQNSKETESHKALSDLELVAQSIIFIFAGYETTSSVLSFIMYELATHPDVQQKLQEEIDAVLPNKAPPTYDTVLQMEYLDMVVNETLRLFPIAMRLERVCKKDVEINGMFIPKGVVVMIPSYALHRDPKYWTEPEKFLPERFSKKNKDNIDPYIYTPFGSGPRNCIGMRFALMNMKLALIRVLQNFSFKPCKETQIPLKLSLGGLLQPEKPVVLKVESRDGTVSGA

As for `COc1cc2nccc(Oc3ccc4c(C(=O)Nc5ccc(Cl)cc5)cccc4c3)c2cc1OC.CS(=O)(=O)O`, the clearance (in general, a measure of how efficiently the substance is removed, as volume per time) in data set [1] was 3.33 mL/min/kg; in data set [6], 1.67 mL/min/kg; in data set [10], 3.33 mL/min/kg. The results for the half-life in [2], in [12] and in data set [15] were 56 h, 17 h and 48 h, respectively. In addition, the Vd in data set [3] worked out at 4.3 L/kg; in data set [5], 6.7 L/kg; in [11], 4.8 L/kg. Further, the bioavailability – broadly, the share of a dose that reaches the circulation, judged against a reference dose that is usually intravenous – in [4] turned out to be 62%; in [13], 24%; in [14] it was 72%. The MRT (commonly the average time that molecules of a dose stay in the body) in data set [7] was 22 h; in data set [8], 23 h; in [9], 66 h.
Regarding `COc1cc2nccc(Oc3ccc4c(C(=O)Nc5ccccn5)cccc4c3)c2cc1OC`, the IC50 (usually the midpoint of a concentration-inhibition curve) at Cytochrome P450 2D6 was greater than 50000 nM; against Cytochrome P450 3A4 it was 13000 nM; in data set [20] it was 0.8 nM; with HUVEC [24] it was 2 nM; with HUVEC [25], 286 nM. Further, the microsomal CLint (usually the rate of metabolic loss divided by the concentration) in data set [16] came to 90 µL/min/mg; in [26], 80 µL/min/mg. The Vd in data set [17] is 3.1 L/kg. The same compound registered an MRT in data set [18] of 7.8 h. The compound also gave a clearance in [19] of 6.67 mL/min/kg. Also, the half-life (usually the time in which the quantity being followed falls by half) in data set [21] is 6.1 h. In addition, the Cmax – broadly, the highest concentration seen after dosing – in data set [22] was 200 ng/mL. In addition, the AUC(0-t) – broadly, the area under the concentration-time curve up to a stated or last time point – at 24 h in [23] worked out at 1240 ng·h/mL. The bioavailability in [27] came to 45%.

The values above are taken from ChEMBL document CHEMBL1144685, “Naphthamides as novel and potent vascular endothelial growth factor receptor tyrosine kinase inhibitors: design, synthesis, and evaluation” (J Med Chem, 2008).
